# Patent US11964953B2, “Substituted aminothiazoles as DGKzeta inhibitors for immune activation” (Bayer Aktiengesellschaft, priority 2020, dated 2024)
# Biological target: human DGKζ (Homo sapiens (Human), UniProt Q13574)
# Assay: Human DGKζ kinase activity inhibition assay (ADP-Glo)
# Assay type: biochemical
# Details: in vitro human DGKζ kinase activity inhibition assay; read-out: IC50
# Summary of the method: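 ADP-Glo luminescence, reflecting ADP produced, served as the readout of activity. Full-length human DGKζ, FLAG-tagged at the C-terminus and insect-cell expressed, was used; lipid substrate mix was sonicated with octyl-β-D-glucopyranoside in 50 mM MOPS pH 7.4.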
# human DGKζ, sequence (Q13574 other isoform, or with tags, fused parts or gaps): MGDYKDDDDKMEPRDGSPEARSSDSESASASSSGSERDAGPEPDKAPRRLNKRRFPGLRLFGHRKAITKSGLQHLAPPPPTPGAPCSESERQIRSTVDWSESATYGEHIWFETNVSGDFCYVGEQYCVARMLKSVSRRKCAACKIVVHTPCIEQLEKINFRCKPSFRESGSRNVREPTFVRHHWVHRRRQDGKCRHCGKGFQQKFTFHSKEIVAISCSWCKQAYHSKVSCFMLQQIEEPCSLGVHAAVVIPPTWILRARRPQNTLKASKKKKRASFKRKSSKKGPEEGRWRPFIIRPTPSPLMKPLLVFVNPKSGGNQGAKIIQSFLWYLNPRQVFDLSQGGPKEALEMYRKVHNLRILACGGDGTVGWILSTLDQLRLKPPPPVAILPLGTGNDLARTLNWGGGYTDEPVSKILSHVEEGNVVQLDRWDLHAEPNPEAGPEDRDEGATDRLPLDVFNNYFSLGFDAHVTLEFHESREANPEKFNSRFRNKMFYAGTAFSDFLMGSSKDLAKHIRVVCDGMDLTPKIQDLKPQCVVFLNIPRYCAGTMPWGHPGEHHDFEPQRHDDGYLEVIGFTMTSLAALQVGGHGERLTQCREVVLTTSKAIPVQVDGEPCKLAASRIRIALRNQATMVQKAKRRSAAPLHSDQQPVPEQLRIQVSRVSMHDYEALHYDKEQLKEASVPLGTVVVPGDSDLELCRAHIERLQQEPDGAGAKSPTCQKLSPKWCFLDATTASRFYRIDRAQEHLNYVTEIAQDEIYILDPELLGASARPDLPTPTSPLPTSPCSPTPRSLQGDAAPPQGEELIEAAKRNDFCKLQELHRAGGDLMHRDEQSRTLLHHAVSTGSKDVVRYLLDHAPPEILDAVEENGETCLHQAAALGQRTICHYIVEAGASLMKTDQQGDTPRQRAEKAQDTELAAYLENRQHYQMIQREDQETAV
row,Compound,IC50 [nM]
1,"CC(C(N)=O)N(c1ccc(F)cc1)c1nc(N)c(C(=O)c2ccc(NC(=O)OCc3ccccc3)nc2)s1 (racemic) [Example 256, rac-benzyl N-[5-[4-amino-2-(N-(2-amino-1-methyl-2-oxo-ethyl)-4-fluoro-anilino)thiazole-5-carbonyl]-2-pyridyl]carbamate]",9
2,"CC(C(N)=O)N(c1ccc(Cl)c(OC(F)F)c1)c1nc(N)c(C(=O)c2ccccc2)s1 (racemic) [Example 238, rac-2-[N-(4-amino-5-benzoyl-thiazol-2-yl)-4-chloro-3-(difluoromethoxy)anilino]propanamide]",667
3,"CC(C(N)=O)N(c1ccc(OC(F)(F)F)cc1)c1nc(N)c(C(=O)c2ccc(F)cc2)s1 (racemic) [Example 27, rac-2-[N-[4-amino-5-(4-fluorobenzoyl)thiazol-2-yl]-4-(trifluoromethoxy)anilino]propanamide]",69.6
4,"CC(C(N)=O)N(c1ccc(Cl)cc1)c1nc(N)c(C(=O)c2ccc(F)cc2)s1 (single isomer, unassigned) [Example 37.2, 2-(N-[4-amino-5-(4-fluorobenzoyl)thiazol-2-yl]-4-chloro-anilino)propanamide]",9.46
5,"CC(C(N)=O)N(c1ccc(F)cc1)c1nc(N)c(C(=O)c2ccc(OC(F)F)cc2)s1 (single isomer, unassigned) [Example 44.1, 2-(N-[4-amino-5-[4-(difluoromethoxy)benzoyl]thiazol-2-yl]-4-fluoro-anilino)propanamide]",1390
6,"CC(C(N)=O)N(c1ccc(F)cc1)c1nc(N)c(C(=O)c2ccc(C(=O)NC[C@@H](C)O)cc2)s1 (mixture of isomers) [Example 265, 4-[4-amino-2-(N-(2-amino-1-methyl-2-oxo-ethyl)-4-fluoro-anilino)thiazole-5-carbonyl]-N-[(2R)-2-hydroxypropyl]benzamide (mixture of stereoisomers)]",459
7,"CC(C(N)=O)N(c1ccc(F)cc1)c1nc(N)c(C(=O)c2ccc(OCC(=O)NCC(O)CO)cc2)s1 (racemic) [Example 147, 2-(N-[4-amino-5-[4-[2-((2RS),3-dihydroxypropylamino)-2-oxo-ethoxy]benzoyl]thiazol-2-yl]-4-fluoro-anilino)propanamide]",291
8,"COc1ccc(N(c2nc(N)c(C(=O)c3ccccc3)s2)C(C)C(N)=O)cn1 (racemic) [Example 227, rac-2-[(4-amino-5-benzoyl-thiazol-2-yl)-(6-methoxy-3-pyridyl)amino]propanamide]",393
